Like-named read-outs stand apart in the source and are kept apart here.
How the values were obtained:
[1] = system: HCT116 (human colon cancer cell line); assay: Antiproliferative MTT assay, HCT116; assay type: cell-based; details: 72 h incubation, mean ± SD
Procedure: (§1) The antiproliferative activity of the compounds according to the invention was determined by the MTT assay on the following cell lines: MCF7 (human breast cancer cell line), HCT116 (human colon cancer cell line), and CCL186 (normal human diploid embryonic lung fibroblast). […] MCF7 and CCL186 cells were cultured in Eagle's Minimum Essential Medium (EMEM) with 1 mM sodium pyruvate, 1.5 g/L sodium bicarbonate, 2 mM L-glutamine supplemented with 10% FBS and 0.01% antibiotics. HCT116 cells were cultured in McCoy's 5A Medium with 2.2 g/L sodium bicarbonate supplemented with […] and 0.01% antibiotics. Cells were plated at the following densities: 10000 cells/well (MCF7), 4000 cells/well (HCT116), 5000 cells/well (CCL186). They were grown for 24 h in a 96-well plate, with 100 μl of corresponding medium in each well. The test compounds were prepared in DMSO and diluted to a series of concentrations with medium. Not more than 1% DMSO (final concentration) was present in each well. The test compounds were incubated with the cells for 72 h, after which 100 μl MTT solution (0.5 mg/ml in 1× PBS) was added for 3 h and the cells lysed to release the formazan product. The latter was dissolved in DMSO (150 μl) and absorbance determined within 30 min at 590 nm on a microtitre plate reader. Cell survival was given by the expression:
(§2) Cell survival (%)=[(Acells+test compound−Ablank)/(Auntreated cells−Ablank)]×100
(§3) where A is the absorbance of formazan measured at 590 nm in the test (Acells+test compound), control (Auntreated cells) or blank (Ablank) wells. Each concentration of test compound was evaluated on 3 separate occasions. […] The MTT assay was also carried out on Hepa1c1c7 cells for the purpose of determining cytotoxicity of test compounds. The same procedure was adopted except that the incubation period of compound with cells was 48 h, instead of 72 h.
(§4) The compounds were initially screened at a fixed concentration of 10 μM on the human cancer cell lines HCT116 and MCF7 cells.

THLE2 = assay: Cell viability assay (Cell Titer-Glo), THLE2 normal hepatocyte cell line; assay type: cell-based; details: Homo sapiens, THLE-2, 72 h, read-out: IC50 THLE2
Procedure: (§5) Cells were plated at 5000-7000 cells/per well and incubated for 24 h before treatment. […] Cell Titer-Glo (Promega, Madison, Wis.) assay was performed according to manufacturer's instruction with luminescence detected on SpectraMax M5 (Molecular Devices, Sunnyvale, Calif.). Data was expressed as percentage of viability vs. vehicle-treated controls.
(§6) The anti-cancer potential of these compounds against HCC were tested using a phenotypic assay where compounds were screened over 100-fold concentration range (0.1 to 10 μM) using two representative liver cancer cell lines, HepG2 and HuH7. Additionally, THLE2 was employed as normal hepatocyte cell line to differentiate anti-cancer potential from non-specific cytotoxicities.
(§7) Cell viability assay shown in FIG. 2 was analyzed by Prism5 for the determination of respective IC50 values.

HCT116 cells = assay: Cell cycle of synchronized HCT116 cells by flow cytometry (FACS); assay type: cell-based, human; details: for Proportion of cells in G1 / Proportion of cells in G2/M / Proportion of cells in S / Proportion of cells in Sub-G1: 24 h; for type of cell cycle arrest caused: HCT116 cells, ≈1.5 × IC50, 24 h
Procedure: HCT116 cells were grown to confluence and maintained in this state for at least 5 days without change of media. The serum starved cells were then trypsinized and subcultured at densities of 5×10^5 cells/well in six-well plates. Growth media contained 10% fetal calf serum. The test compound was added either immediately to cells synchronized at G1 phase, or 24 h later when cells were synchronized at G2 phase. The cells were incubated with test compound for 24 h from the time of addition. After this time, the cells were harvested, trypsinized and fixed in 70% ice-cold ethanol for a minimum of 24 h. After centrifugation, the supernatant was discarded and the pellet was treated with RNase A (200 μg/ml) for 30 min at room temperature, followed by cell staining using propidium iodide at a final concentration of 20 μg/ml. The stained cells were then analyzed for cell cycle distribution in the sub-G1, G1, S and G2/M phases on a Dako Cytomation Cyan LX (Dako Colorado, Fort Collins, Colo., USA) equipped with an argon solid state laser (488 nm) using the Summit (version 4.3) software. Compounds were tested at a concentration of ≈1.5×IC50, with IC50 determined by the MTT assay on HCT116 cells.
To have a better understanding of the mechanisms underlying the antiproliferative activities of the compounds listed in Table 5, their effects on the cell cycle was investigated by fluorescence-activated cell sorter (FACS) analysis using flow cytometry. The experiments were designed to examine the effects of the test compounds on synchronized cell populations at the GI or G2/M phase. G1 synchronized cells were obtained by growing cells to confluence for up to 5 days and then stimulating their re-entry into the cell cycle by sub-culturing at lower densities. After 24 hours of growth, these cells would be aligned at the G2/M phase.
Cells aligned at the G2/M phase were similarly treated.

NQO1 = assay: Induction of NQO1 (QR) activity in Hepa1c1c7 cells
Hepa1c1c7 cells = assay: MTT growth inhibition / cytotoxicity on Hepa1c1c7 cells; assay type: cell-based, murine; details: Mus musculus, Hepa-1c1c7, 48 h, highest concentration tested 25 μM
Procedure: as §1, §2, §3

[2] = system: MCF7 (human breast cancer cell line); assay: Antiproliferative MTT assay, MCF7; assay type: cell-based; details: 72 h incubation, mean ± SD, n = 3, read-out: IC50 MCF-7
Procedure: as §1, §2, §3, §4

HepG2 = assay: cells; assay type: cell-based, human; details: for IC50 / viability at 10 µM: Homo sapiens; for IC50: HepG2, 72 h, read-out: IC50 HepG2; for viability at 10 µM: HepG2, 72 h, vs vehicle-treated controls, read-out: Percentage viability HepG2; for SR(HepG2/THLE2) safety ratio: percentage viability at 10 μM normalized with THLE2
Procedure: as §5, §6, §7
(§8) Cell viability was determined as described previous in Table 7. Percentage viability at 10 μM treatments was determined and safety ratios were calculated by normalizing survival in HCC cell lines to THLE2.

HuH7 = assay: cells; assay type: cell-based, human; details: for IC50 / viability at 10 µM: Homo sapiens; for IC50: Huh-7, 72 h, read-out: IC50 HuH7; for viability at 10 µM: Huh-7, 72 h, vs vehicle-treated controls, read-out: Percentage viability HuH7; for SR(HuH7/THLE2) safety ratio: percentage viability at 10 μM normalized with THLE2
Procedure: as §5, §6, §7, §8

[3] = system: CCL186 (normal human diploid embryonic lung fibroblast); assay: Antiproliferative MTT assay, CCL186; assay type: cell-based; details: for IC50: Homo sapiens, CCL186, MTT, 72 h incubation, mean ± SD, n = 3, read-out: IC50 CCL-186; for selectivity ratio: IC50 CCL186/IC50 MCF7 or IC50 CCL186/IC50 HCT116: normal vs cancer cell line
Procedure: as §1, §2, §3

[4] = HCT 116 cells released from G2 Block, 2.5 μM
[5] = Homo sapiens, HCT-116, 72 h, n = 3
[6] = HCT 116 cells released from G1 Block, 15 μM
[7] = HCT 116 cells released from G2 Block, 15 μM
[8] = HCT 116 cells released from G1 Block, 5 μM
[9] = HCT 116 cells released from G2 Block, 5 μM

Structure (SMILES)	IC50 ([1]; n = 3, read-out: IC50 HCT-116)	IC50 (THLE2)	type of cell cycle arrest caused (HCT116 cells)	IC50 (Hepa1c1c7 cells)	IC50 [2]	IC50 (HepG2)	viability at 10 µM (HepG2)	SR(HepG2/THLE2) safety ratio (HepG2)	IC50 (HuH7)	viability at 10 µM (HuH7)	SR(HuH7/THLE2) safety ratio (HuH7)	IC50 [3]	IC50 [1, 5]	Proportion of cells in G1 (HCT116 cells; [6])	Proportion of cells in G2/M (HCT116 cells; [6])	Proportion of cells in S (HCT116 cells; [6])	Proportion of cells in Sub-G1 (HCT116 cells; [6])	Proportion of cells in G1 (HCT116 cells; [7])	Proportion of cells in G2/M (HCT116 cells; [7])	Proportion of cells in S (HCT116 cells; [7])	also measured
COc1cccc(/C=C2/C(=O)Nc3cc(OC)ccc32)c1 [Compound 42, (E)-6-Methoxy-3-(3-methoxybenzylidene)indolin-2-one]	1.3 ± 0.4 µM	1.2 µM	G2 arrest	9.8 µM	1.2 ± 0.4 µM	2.2 µM	20.7 ± 2%	1.89	4 µM	49.2 ± 4%	0.79	1.8 ± 0.2 µM	–	–	–	–	–	–	–	–	Proportion of cells in G1 (HCT116 cells; [4]): 26.01%; Proportion of cells in G2/M (HCT116 cells; [4]): 43.57%; Proportion of cells in S (HCT116 cells; [4]): 15.36%; Proportion of cells in Sub-G1 (HCT116 cells; [4]): 30.54%; NQO1 induction ratio (NQO1; 0.5 μM, read off from plot): 3.08; NQO1/CYP1A1 Quotient (NQO1; both ratios at 0.5 μM): 2.72
COc1ccc2c(c1)NC(=O)/C2=C/c1ccc(OC)c(O)c1 [Compound 45, (E)-3-(3-Hydroxy-4-methoxybenzylidene)-6-methoxyindolin-2-one]	7.8 ± 0.9 µM	> 10 µM	G2 arrest	9.8 µM	3.7 ± 0.3 µM	1.4 µM	19.9 ± 1.4%	3.61	8 µM	46.6 ± 1.8%	1.54	11.3 ± 0.4 µM	< 10 µM	17.49%	56.49%	21.13%	5.26%	26.01%	43.57%	15.36%	Proportion of cells in Sub-G1 (HCT116 cells; [7]): 15.54%; NQO1 induction ratio (NQO1; 1 μM, read off from plot of degree of induction versus concentration): 4.34; NQO1/CYP1A1 Quotient (NQO1; both ratios at 1 μM): 4.13
O=C1Nc2cc(F)ccc2/C1=C\c1cccc(C(F)(F)F)c1 [Compound 46, (E)-6-Fluoro-3-(3-(trifluoromethyl)benzylidene)indolin-2-one]	8.9 ± 0.3 µM	> 10 µM	G1 arrest	2.2 µM	8.4 ± 0.3 µM	0.4 µM	4.2 ± 0.3%	17.19	1.1 µM	11.3 ± 1%	6.39	7.5 ± 0.7 µM	< 10 µM	64.93%	14.58%	8.04%	12.68%	64.15%	25.00%	8.82%	Proportion of cells in Sub-G1 (HCT116 cells; [7]): 2.49%; NQO1 induction ratio (NQO1; 0.05 μM, read off from plot): 3.31; NQO1/CYP1A1 Quotient (NQO1; both ratios at 0.05 μM): 2.69; IC50 ([2]; Homo sapiens, MCF7, 72 h): < 10 µM; selectivity ratio: IC50 CCL186/IC50 MCF7 or IC50 CCL186/IC50 HCT116 [3]: ~1
O=C1Nc2cc(Cl)ccc2/C1=C\c1cccc(C(F)(F)F)c1 [Compound 47, (E)-6-Chloro-3-(3-(trifluoromethyl)benzylidene)indolin-2-one]	7.5 ± 0.4 µM	> 10 µM	G1 arrest	1.1 µM	3.8 ± 0.3 µM	0.6 µM	1.1 ± 0.09%	65.27	0.5 µM	3.3 ± 0.2%	21.76	6.6 ± 0.5 µM	< 10 µM	65.55%	15.13%	7.10%	12.39%	53.47%	28.39%	8.05%	Proportion of cells in Sub-G1 (HCT116 cells; [7]): 10.62%; NQO1 induction ratio (NQO1; 0.05 μM, read off from plot): 5.20; NQO1/CYP1A1 Quotient (NQO1; both ratios at 0.05 μM): 2.17; selectivity ratio: IC50 CCL186/IC50 MCF7 or IC50 CCL186/IC50 HCT116 [3]: ~1
COc1ccc2c(c1)NC(=O)/C2=C/c1cccc(C(F)(F)F)c1 [Compound 48, (E)-6-Methoxy-3-(3-(trifluoromethyl)benzylidene)indolin-2-one]	3.8 ± 0.6 µM	3.6 µM	G2 arrest	2.6 µM	1.9 ± 0.5 µM	0.4 µM	14.5 ± 1.3%	2.40	2.3 µM	27.3 ± 0.5%	1.27	5.4 ± 0.3 µM	–	–	–	–	–	–	–	–	Proportion of cells in G1 (HCT116 cells; [8]): 17.50%; Proportion of cells in G2/M (HCT116 cells; [8]): 59.16%; Proportion of cells in S (HCT116 cells; [8]): 19.12%; Proportion of cells in Sub-G1 (HCT116 cells; [8]): 4.39%; Proportion of cells in G1 (HCT116 cells; [9]): 30.55%; Proportion of cells in G2/M (HCT116 cells; [9]): 31.58%; Proportion of cells in S (HCT116 cells; [9]): 17.96%; Proportion of cells in Sub-G1 (HCT116 cells; [9]): 20.69%; NQO1 induction ratio (NQO1; 0.5 μM, read off from plot): 4.22; NQO1/CYP1A1 Quotient (NQO1; both ratios at 0.5 μM): 3.10
